Results on 32 compounds are retold here after US5124342A, “4-hydroxythiazoles as 5-lipoxygenase inhibitors” (Abbott Laboratories, priority 1990, dated 1992).

The target in one assay is T1, 5-lipoxygenase (Rattus norvegicus, UniProt P12527).
T1 construct: homogenized RBL-1 cells; endogenous in cells; host or cells: RBL-1 cells (20,000×g supernatant of homogenate)
T1 sequence (P12527 1-673): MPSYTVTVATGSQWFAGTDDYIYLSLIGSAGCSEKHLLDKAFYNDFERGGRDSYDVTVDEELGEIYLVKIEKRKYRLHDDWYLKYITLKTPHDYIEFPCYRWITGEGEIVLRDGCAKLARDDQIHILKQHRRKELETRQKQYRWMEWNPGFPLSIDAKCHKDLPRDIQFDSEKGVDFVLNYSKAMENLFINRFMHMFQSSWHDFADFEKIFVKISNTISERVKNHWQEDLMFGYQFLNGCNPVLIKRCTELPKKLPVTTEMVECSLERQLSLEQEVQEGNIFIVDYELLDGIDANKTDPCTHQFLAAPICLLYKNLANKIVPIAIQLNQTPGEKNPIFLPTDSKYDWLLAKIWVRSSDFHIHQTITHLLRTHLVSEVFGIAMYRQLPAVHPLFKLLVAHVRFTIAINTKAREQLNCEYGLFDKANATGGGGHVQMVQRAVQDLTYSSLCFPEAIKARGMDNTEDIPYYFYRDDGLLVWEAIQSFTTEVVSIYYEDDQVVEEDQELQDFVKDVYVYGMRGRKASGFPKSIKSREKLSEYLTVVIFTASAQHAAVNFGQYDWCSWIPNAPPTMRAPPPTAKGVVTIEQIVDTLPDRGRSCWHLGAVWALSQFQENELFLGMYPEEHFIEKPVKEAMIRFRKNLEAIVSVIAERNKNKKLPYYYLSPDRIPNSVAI
Put plainly: 5-Lipoxygenase inhibition, 20,000×g supernatant of homogenized RBL-1 cells, radiolabeled arachidonic acid. Format: biochemical. As to conditions: 5-lipoxygenase from RBL-1 20,000 × g supernatant; read-out: IC50 (95% CL). The method, then:
Proc., Fed. Am. Soc. Exp. Biol. 1984, 43, […]. Reactions were initiated by the addition of radiolabeled arachidonic acid and terminated by acidification and ether extraction. Reaction products were separated from nonconvented substrate by thin layer chromatography and measured by liquid scintillation spectroscopy. Inhibition of 5-lipoxygenase activity was calculated as the ratio of the amounts of product formed in the presence and absence of inhibitor.
Turning to `COc1ccc2nc(-c3nc(O)c(C)s3)sc2c1` [Example 6, 2-[2-(6-Methoxybenzothiazolyl)]-4-hydroxy-5-methylthiazole], the IC50 was determined as 890 nM.
For the compound `Cc1sc(-c2ccc(F)cc2)nc1O` [Example 9, 2-(4-Fluorophenyl)-4-hydroxy-5-methylthiazole], the IC50 came out at 350 nM.
In the case of `Cc1sc(-c2ccc(Br)cc2)nc1O` [Example 10, 2-(4-Bromophenyl)-4-hydroxy-5-methylthiazole], the IC50 was determined as 510 nM.
As for `Cc1sc(-c2ccc(Cl)cc2)nc1O` [Example 11, 2-(4-Chlorophenyl)-4-hydroxy-5-methylthiazole], the IC50 worked out at 570 nM.
Take `Cc1sc(-c2ccc(C(=O)OCCc3ccccc3)cc2)nc1O` [Example 13, 2-(4-Carbo-2-phenethoxyphenyl)-4-hydroxy-5-methylthiazole]: the IC50 stood at 980 nM.
Regarding `COC(=O)c1ccc(-c2nc(O)c(C)s2)cc1` [Example 17, 2-(4-Carbomethoxyphenyl)-4-hydroxy-5-methylthiazole], the 50% inhibitory concentration (IC50) was 880 nM.
Consider `CC(=O)c1ccc(-c2nc(O)c(C)s2)cc1` [Example 18, 2-(4-Acetylphenyl)-4-hydroxy-5-methylthiazole], for which the IC50 was determined as 900 nM.
In the case of `Cc1sc(-c2ccc(C#N)cc2)nc1O` [Example 20, 2-(4-Cyanophenyl)-4-hydroxy-5-methylthiazole], the IC50 amounted to 700 nM.
Still for that read-out and setting: to `CCOC(=O)c1ccc(-c2nc(O)c(C)s2)cc1` [Example 23, 2-(4-Carboethoxyphenyl)-4-hydroxy-5-methylthiazole] belongs 710 nM; to `Cc1sc(-c2ccccc2F)nc1O` [Example 24, 2-(2-Fluorophenyl)-4-hydroxy-5-methylthiazole], 500 nM.
Take `Cc1sc(-c2cccc(F)c2)nc1O` [Example 25, 2-(3-Fluorophenyl)-4-hydroxy-5-methylthiazole]: the IC50 was found to be 660 nM.
In the case of `Cc1sc(-c2cccc(Br)c2)nc1O` [Example 26, 2-(3-Bromophenyl)-4-hydroxy-5-methylthiazole], the IC50 turned out to be 480 nM.
Consider `Cc1cccc(-c2nc(O)c(C)s2)c1Cl` [Example 29, 2-(2-Chloro-3-methylphenyl)-4-hydroxy-5-methylthiazole], for which the concentration for half-maximal inhibition (IC50) stood at 820 nM.
Consider `Cc1sc(-c2ccccc2)nc1O` [Example 31, 2-Phenyl-4-hydroxy-5-methylthiazole], for which the IC50 is 960 nM.
`Cc1ccc(-c2nc(O)c(C)s2)cc1` [Example 33, 2-(4-Methylphenyl)-4-hydroxy-5-methylthiazole]: the half-maximal inhibitory concentration (IC50) was 630 nM.
Still for that read-out and setting: the same measure for `Oc1nc(-c2ccccc2)sc1-c1ccccc1` [Example 34, 2-Phenyl-4-hydroxy-5-phenylthiazole]: 530 nM.
On to `CCc1sc(-c2ccccc2)nc1O` [Example 35, 2-Phenyl-4-hydroxy-5-ethylthiazole], for which the IC50 came to 830 nM.
Regarding `CCCc1sc(-c2ccccc2)nc1O` [Example 36, 2-Phenyl-4-hydroxy-5-propylthiazole], the 50% inhibitory concentration (IC50) is 580 nM.
Take `Oc1nc(-c2ccccc2)sc1CCc1ccccc1` [Example 38, 2-Phenyl-4-hydroxy-5-phenethylthiazole]: the IC50 was determined as 690 nM.
Regarding `CCOC(=O)CCC(=O)Oc1nc(-c2ccccc2)sc1-c1ccccc1` [Example 53, 2-Phenyl-4-ethyl succinyloxy-5-phenylthiazole], the IC50 was 750 nM.
Consider `CCCc1sc(-c2ccccc2)nc1OC(=O)OCC` [Example 54, 2-Phenyl-[4-(carboethoxy)oxy]-5-propylthiazole], for which the IC50 turned out to be 910 nM.
As for `COC(=O)c1ccc(-c2nc(OC(C)=O)c(C)s2)cc1` [Example 60, 2-(4-Carbomethoxyphenyl)-4-acetoxy-5-methylthiazole], the IC50 turned out to be 690 nM.
The same measure, in the same setting: the same measure for `CCCCc1sc(-c2ccccc2)nc1OC(C)=O` [Example 67, 2-Phenyl-4-acetoxy-5-butylthiazole]: 950 nM.

Staying with this assay, now noted: at 0.3 μM; RBL-1 20,000 × g supernatant; read-out: % Inhibition at μM Conc.
Turning to `Oc1nc(-c2cccnc2)sc1-c1ccccc1` [Example 41, 2-(3-Pyridyl)-4-hydroxy-5-phenylthiazole], the inhibition at 0.3 µM amounted to 83%.
In the case of `COc1ccc(-c2nc(O)c(-c3ccccc3)s2)cc1` [Example 43, 2-(4-Methoxyphenyl)-4-hydroxy-5-phenylthiazole], the inhibition at 0.3 µM stood at 88%.

The same assay, now with this note: at 0.4 μM; RBL-1 20,000 × g supernatant; read-out: % Inhibition at μM Conc.
Consider `Cc1ccc(-c2nc(O)c(-c3ccccc3)s2)cc1` [Example 46, 2-(4-Methylphenyl)-4-hydroxy-5-phenylthiazole], for which the inhibition at 0.4 µM is 91%.
On the same count and under the same terms, the same measure for `Oc1nc(-c2ccc(F)cc2)sc1-c1ccccc1` [Example 47, 2-(4-Fluorophenyl)-4-hydroxy-5-phenylthiazole]: 82%; for `CCOc1ccc(-c2nc(O)c(-c3ccccc3)s2)cc1` [Example 48, 2-(4-Ethoxyphenyl)-4-hydroxy-5-phenylthiazole]: 77%.
Still for that read-out and setting: to `CC(=O)Oc1nc(-c2ccccc2)sc1-c1ccccc1` [Example 50, 2-Phenyl-4-acetoxy-5-phenylthiazole] belongs 88%.

Staying with this assay, now noted: at 0.5 μM; RBL-1 20,000 × g supernatant; read-out: % Inhibition at μM Conc.
Consider `CC(=O)Oc1nc(-c2ccc(C)cc2)sc1-c1ccccc1` [Example 62, 2-(4-Methylphenyl)-4-acetoxy-5-phenylthiazole], for which the inhibition at 0.5 µM was 93%.

The assay is the same for the next values; noted with them: at 0.75 μM; RBL-1 20,000 × g supernatant; read-out: % Inhibition at μM Conc.
In the case of `CC(=O)Oc1nc(-c2ccc(-c3ccccc3)cc2)sc1-c1ccccc1` [Example 65, 2-Biphenyl-4-acetoxy-5-phenylthiazole], the inhibition at 0.75 µM amounted to 82%.

The same assay, now with this note: at 1 μM; RBL-1 20,000 × g supernatant; read-out: % Inhibition at μM Conc.
`CCCCCc1nc(OC(C)=O)c(CCC)s1` [Example 68, 2-Pentyl-4-acetoxy-5-propylthiazole]: the inhibition at 1 µM amounted to 79%.
